This passage reports EC50 results from patent US10150760B2, “Compounds for use in preparing heterocyclic triazole agonists of the APJ receptor” (AMGEN INC., priority 2016, dated 2018).

By EC50 is commonly meant the midpoint of the concentration-response curve.

Chain of human APJ receptor (P35414 whole entry): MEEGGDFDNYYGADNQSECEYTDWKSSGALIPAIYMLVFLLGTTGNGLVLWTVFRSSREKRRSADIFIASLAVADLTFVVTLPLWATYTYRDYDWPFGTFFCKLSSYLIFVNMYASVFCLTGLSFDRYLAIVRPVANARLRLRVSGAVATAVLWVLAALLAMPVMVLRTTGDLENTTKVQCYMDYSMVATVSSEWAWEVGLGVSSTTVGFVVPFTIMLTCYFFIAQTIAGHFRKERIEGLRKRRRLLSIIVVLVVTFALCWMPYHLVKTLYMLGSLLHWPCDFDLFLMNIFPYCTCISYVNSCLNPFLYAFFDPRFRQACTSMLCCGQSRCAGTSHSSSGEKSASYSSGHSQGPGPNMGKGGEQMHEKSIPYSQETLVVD

For this assay, the target named is human APJ receptor (Homo sapiens (Human), UniProt P35414). Briefly: [35S]GTPγS binding assay on membranes from CHO cells stably expressing human APJ receptor. It is filed as biochemical. The conditions noted are these: read-out: Activity hAPJ SPA EC50 IP. In outline:
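Membranes from CHO cells stably expressing human APJ incubated with ligand, 0.2 nM [35S]GTPγS and WGA SPA beads in HEPES pH 7.5 with 5 mM MgCl2, 200 mM NaCl, 3 μM GDP, 90 min at RT. Nonspecific binding defined with 100 μM GTPγS; EC50 by non-linear regression.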
Background: GTPγS resists hydrolysis and so accumulates on activated G proteins.
Consider “(1R,2)S-N-(4-(2,6-dimethoxyphenyl)-5-((R)-1,4-dioxan-2-yl)-4H-1,2,4-triazol-3-yl)-1-methoxy-1-(5-methylpyrimidin-2-yl)propane-2-sulfonamide or (1R,2S)-N-(4-(2,6-dimethoxyphenyl)-5-((S)-1,4-dioxan-2-yl)-4H-1,2,4-triazol-3-yl)-1-methoxy-1-(5-methylpyrimidin-2-yl)propane-2-sulfonamide [Example 201.0]”, for which the EC50 worked out at 31 nM.
Next, “(1R,2S)-1-(5-chloro-2-pyridinyl)-N-(4-(1,3-dimethoxy-2-propanyl)-5-((2R,5R)-5-methyltetrahydro-2-furanyl)-4H-1,2,4-triazol-3-yl)-1-methoxy-2-propanesulfonamide or (1R,2S)-1-(5-chloro-2-pyridinyl)-N-(4-(1,3-dimethoxy-2-propanyl)-5-((2S,5S)-5-methyltetrahydro-2-furanyl)-4H-1,2,4-triazol-3-yl)-1-methoxy-2-propanesulfonamide [Example 380.0]”: 60 nM; “(1R,2S)-1-(5-chloro-2-pyridinyl)-N-(4-(1,3-dimethoxy-2-propanyl)-5-((2R,5R)-5-methyltetrahydro-2-furanyl)-4H-1,2,4-triazol-3-yl)-1-methoxy-2-propanesulfonamide or (1R,2S)-1-(5-chloro-2-pyridinyl)-N-(4-(1,3-dimethoxy-2-propanyl)-5-((2S,5S)-5-methyltetrahydro-2-furanyl)-4H-1,2,4-triazol-3-yl)-1-methoxy-2-propanesulfonamide [Example 381.0]”: 2.1 nM; “(1R,2S)-1-(5-chloro-2-pyrimidinyl)-N-(4-(1,3-dimethoxy-2-propanyl)-5-((2R)-5,5-dimethyltetrahydro-2-furanyl)-4H-1,2,4-triazol-3-yl)-1-methoxy-2-propanesulfonamide or (1R,2S)-1-(5-chloro-2-pyrimidinyl)-N-(4-(1,3-dimethoxy-2-propanyl)-5-((2S)-5,5-dimethyltetrahydro-2-furanyl)-4H-1,2,4-triazol-3-yl)-1-methoxy-2-propanesulfonamide [Example 307.0]”: 14 nM.
The result for “(1R,2S)-1-(5-chloro-2-pyrimidinyl)-N-(4-(1,3-dimethoxy-2-propanyl)-5-((2R)-5,5-dimethyltetrahydro-2-furanyl)-4H-1,2,4-triazol-3-yl)-1-methoxy-2-propanesulfonamide or (1R,2S)-1-(5-chloro-2-pyrimidinyl)-N-(4-(1,3-dimethoxy-2-propanyl)-5-((2S)-5,5-dimethyltetrahydro-2-furanyl)-4H-1,2,4-triazol-3-yl)-1-methoxy-2-propanesulfonamide [Example 308.0]” reads 410 nM; that for “(1R,2S)-1-(5-chloro-2-pyrimidinyl)-N-(4-(1,3-dimethoxy-2-propanyl)-5-((2S,5S)-5-methyltetrahydro-2-furanyl)-4H-1,2,4-triazol-3-yl)-1-methoxy-2-propanesulfonamide or (1R,2S)-1-(5-chloro-2-pyrimidinyl)-N-(4-(1,3-dimethoxy-2-propanyl)-5-((2R,5R)-5-methyltetrahydro-2-furanyl)-4H-1,2,4-triazol-3-yl)-1-methoxy-2-propanesulfonamide [Example 252.0]”, 250 nM; that for “(1R,2S)-1-(5-chloro-2-pyrimidinyl)-N-(4-(1,3-dimethoxy-2-propanyl)-5-((2S,5S)-5-methyltetrahydro-2-furanyl)-4H-1,2,4-triazol-3-yl)-1-methoxy-2-propanesulfonamide or (1R,2S)-1-(5-chloro-2-pyrimidinyl)-N-(4-(1,3-dimethoxy-2-propanyl)-5-((2R,5R)-5-methyltetrahydro-2-furanyl)-4H-1,2,4-triazol-3-yl)-1-methoxy-2-propanesulfonamide [Example 253.0]”, 6.3 nM.
As for “(1R,2S)-1-(5-chloro-2-pyrimidinyl)-N-(4-(1,3-dimethoxy-2-propanyl)-5-((3S)-tetrahydro-3-furanyl)-4H-1,2,4-triazol-3-yl)-1-methoxy-2-propanesulfonamide or (1R,2S)-1-(5-chloro-2-pyrimidinyl)-N-(4-(1,3-dimethoxy-2-propanyl)-5-((3R)-tetrahydro-3-furanyl)-4H-1,2,4-triazol-3-yl)-1-methoxy-2-propanesulfonamide [Example 305.0]”, the EC50 stood at 740 nM.
Next, “(1R,2S)-1-(5-chloro-2-pyrimidinyl)-N-(4-(1,3-dimethoxy-2-propanyl)-5-((3S)-tetrahydro-3-furanyl)-4H-1,2,4-triazol-3-yl)-1-methoxy-2-propanesulfonamide or (1R,2S)-1-(5-chloro-2-pyrimidinyl)-N-(4-(1,3-dimethoxy-2-propanyl)-5-((3R)-tetrahydro-3-furanyl)-4H-1,2,4-triazol-3-yl)-1-methoxy-2-propanesulfonamide [Example 306.0]”: 900 nM; “(1R,2S)-1-(5-chloropyridin-2-yl)-N-(4-(2,6-dimethoxyphenyl)-5-((R)-1,4-dioxan-2-yl)-4H-1,2,4-triazol-3-yl)-1-methoxypropane-2-sulfonamide or (1R,2S)-1-(5-chloropyridin-2-yl)-N-(4-(2,6-dimethoxyphenyl)-5-((S)-1,4-dioxan-2-yl)-4H-1,2,4-triazol-3-yl)-1-methoxypropane-2-sulfonamide [Example 264.0]”: 1.2 nM; “(1R,2S)-1-(5-chloropyrimidin-2-yl)-1-methoxy-N-(4-(1-methylcyclopropyl)-5-((2S,5S)-5-methyltetrahydrofuran-2-yl)-4H-1,2,4-triazol-3-yl)propane-2-sulfonamide or (1R,2S)-1-(5-chloropyrimidin-2-yl)-1-methoxy-N-(4-(1-methylcyclopropyl)-5-((2R,5R)-5-methyltetrahydrofuran-2-yl)-4H-1,2,4-triazol-3-yl)propane-2-sulfonamide [Example 199.0]”: 2.7 nM.
As for “(1R,2S)-1-(5-chloropyrimidin-2-yl)-1-methoxy-N-(4-(1-methylcyclopropyl)-5-((2S,5S)-5-methyltetrahydrofuran-2-yl)-4H-1,2,4-triazol-3-yl)propane-2-sulfonamide or (1R,2S)-1-(5-chloropyrimidin-2-yl)-1-methoxy-N-(4-(1-methylcyclopropyl)-5-((2R,5R)-5-methyltetrahydrofuran-2-yl)-4H-1,2,4-triazol-3-yl)propane-2-sulfonamide [Example 200.0]”, the EC50 came out at 290 nM.
As for “(1R,2S)-1-(5-chloropyrimidin-2-yl)-1-methoxy-N-(5-((2S,5S)-5-methyltetrahydrofuran-2-yl)-4-(tetrahydro-2H-pyran-4-yl)-4H-1,2,4-triazol-3-yl)propane-2-sulfonamide or (1R,2S)-1-(5-chloropyrimidin-2-yl)-1-methoxy-N-(5-((2R,5R)-5-methyltetrahydrofuran-2-yl)-4-(tetrahydro-2H-pyran-4-yl)-4H-1,2,4-triazol-3-yl)propane-2-sulfonamide [Example 226.0]”, the EC50 was determined as 1400 nM.
